Patent publication US20230381192A1, “METHODS FOR CONTROLLING AND PREDICTING RECOVERY AFTER NMBA ADMINISTRATION” (Cornell University, priority 2020, published 2023)
Like-named read-outs stand apart in the source and are kept apart here.

Key:
[1] = preclinical studies; cited from earlier work
Healthy volunteers = test: Phase I: NMB measured by mechanomyography (twitch T1, TOFR) in healthy volunteers under sevoflurane/N2O; assay type: in vivo, human; details: for mean time to 95% T1 recovery: spontaneous recovery
Source text: Twitch Height: A peripheral nerve stimulator that applies supramaximal. stimuli to the ulnar nerve at the wrist via surface electrodes was used for neuromuscular monitoring. Following anesthesia induction, single twitch stimuli (0.10 Hz) may be delivered continuously during a 15- to 20- minute period to establish baseline twitch height. Single twitch may continue during and following NMBA administration.
Train-of-Four twitch stimulation pattern ratio (TOFR): The TOP delivers 4 supramaximal electrical impulses that involve four equally strong twitches of the stimulated muscle. A fade of the twitches appears when the neuromuscular blockade increases. Comparison of the fourth twitch (T4) to the first twitch (T1) provides the TOFR.
(§1) (Abstract available in the final supplement of the Journal of Anesthesia and Analgesia, May 2020 (Volume 30, Issue pages 73-74), which is incorporated herein by reference. Healthy volunteers (n=34) aged 18 to 55 of either gender gave informed consent to an 1RB-approved Phase I protocol, NMB was measured by mechanomyography during sevoflurane (0.5 MAC)/N20 (70%) anesthesia. Each volunteer received a single IV bolus of RP1000,
An ED95 dose of 0.08 mg/kg was established under sevoflurane anesthesia and a dose of 0.14 mg/kg led to 100% twitch suppression in all subjects. At doses below 0,08 mg/kg, (n=18) 100% twitch inhibition occurred in NONE of the volunteers. […] volunteers, however, who were given doses of 0.08, 0.10, or 0.14 mg/kg, developed 100% block: (n=2 of 6 at 0.08, 6 of 6 at 0.10, and 4 of 4 at 0,14 mg/kg).
During spontaneous recovery from 100% block, in all volunteers, TOE stimulation was applied to the ulnar nerve every 20 seconds and the response of the thumb was monitored continuously until T1 of TOE had recovered to 95% of baseline and TOFR had reached 0.90. The total duration of block was calculated from injection to recovery of T1 to 95 percent of baseline and to recovery of TOFR to 0.90. The 5-95% recovery intervals during recovery from 100% block were measured, Following the completion of data acquisition for all dosage groups, a comparison was made by ANOVA of the 5-95% recovery times resulting after doses of 0.08, 0.10 and 0.14 mg/kg. Recovery data in the 12 volunteers who developed 100% block were then combined to show a single composite recovery pattern. ANOVA was again done to compare the recovery data (5-95% intervals) for the composite group to the corresponding intervals for the separate dosage groups of 0.08, 0.10, and 0,14 mg/kg.

[2] = in vivo; cited from earlier work
[3] = Phase I pharmacokinetics after single IV bolus; assay type: in vivo; details: both sexes, human
Method: as §1

[4] = human, Composite of 0.08, 0.10, 0.14 mg/kg groups (n=12)
[5] = human, dose 0.08 mg/kg, recovery from 100% block
[6] = human, dose 0.1 mg/kg, recovery from 100% block
[7] = human, dose 0.14 mg/kg, recovery from 100% block
[8] = human, doses ≥ED95, approximately

In the case of `COc1ccc(C[C@@H]2c3cc(OC)c(OC)cc3CC[N@@+]2(C)CCCOC(=O)/C=C/C(=O)OCCC[N@+]2(C)CCc3cc(OC)c(OC)cc3[C@H]2Cc2ccc(OC)c(OC)c2)cc1OC.[Cl-].[Cl-]` [RP1000], the “time to 100% NMB after administration” value [1] is given as at most 90 s, the “Time to maximum T1 recovery” value (Healthy volunteers; human, 0.08 mg/kg) is given as “about 50 minutes” and the “mean time to T4:T1>0.9” value (Healthy volunteers; human, 0.08 mg/kg) is given as “about 50 minutes”. The “volunteers who developed 100% block” value (Healthy volunteers; human, 0.08 mg/kg) was 2 of 6, the “Time to maximum T1 recovery” value (Healthy volunteers; human, 0.10 mg/kg) was “about 70 minutes” and the “mean time to T4:T1>0.9” value (Healthy volunteers; human, 0.10 mg/kg) was “about 70 minutes”. For the same compound, the “volunteers who developed 100% block” value (Healthy volunteers; human, 0.10 mg/kg) was 6 of 6, the “mean time from 5% to 95% T1 recovery” value (Healthy volunteers; human, 0.1 mg/kg and 0.145 mg/kg doses) was 35 to 40 min and the “Time to maximum T1 recovery” value (Healthy volunteers; human, 0.14 mg/kg) was “about 70 minutes”. For the same compound, the “mean time to T4:T1>0.9” value (Healthy volunteers; human, 0.14 mg/kg) was about 80 min, the “volunteers who developed 100% block” value (Healthy volunteers; human, 0.14 mg/kg) was 4 of 4 and the “Recovery Time, Recovery Interval 5%-95%” value (Healthy volunteers; [4]) was 37.4 ± 6.4 min. For the same compound, the “Recovery Time, Recovery Interval 25%-75%” value (Healthy volunteers; [4]) was 14.9 ± 3.0 min, the “Recovery Time, Recovery Interval 5%-95%” value (Healthy volunteers; [5]) was 34.8 ± 12.5 min and the “Recovery Time, Recovery Interval 25%-75%” value (Healthy volunteers; [5]) was 15.7 ± 8.4 min. The “Recovery Time, Recovery Interval 5%-95%” value (Healthy volunteers; [6]) was 39.4 ± 6.5 min, the “Recovery Time, Recovery Interval 25%-75%” value (Healthy volunteers; [6]) was 15.1 ± 2.0 min and the “Recovery Time, Recovery Interval 5%-95%” value (Healthy volunteers; [7]) was 35.6 ± 3.1 min. For the same compound, the “Recovery Time, Recovery Interval 25%-75%” value (Healthy volunteers; [7]) was 14.2 ± 0.9 min, the twitch suppression (Healthy volunteers; human, dose of 0.14 mg/kg, in all subjects) was 100% and the “volunteers in whom 100% twitch inhibition occurred” value (Healthy volunteers; human, doses below 0.08 mg/kg (n=18)) was “NONE”. For the same compound, the “volunteers who developed 100% block” value (Healthy volunteers; human, doses of 0.08, 0.10, or 0.14 mg/kg pooled) was 12 of 14, the “time to 95% T1 suppression” value (Healthy volunteers; [8]) was 2 to 3 min and the “time to maximum T1 suppression” value (Healthy volunteers; [8]) was 3 to 5 min. The “duration of NMB effect” value (Healthy volunteers; human, injection) was “intermediate duration”, the onset of action (Healthy volunteers; human, injection) was “rapid onset of action” and the “mean time to 95% T1 recovery” value (Healthy volunteers; human, 0.08 mg/kg) was “approximately 45 minutes”. The “mean time to 95% T1 recovery” value (Healthy volunteers; human, 0.10 mg/kg) was about 55 min, the “mean time to 95% T1 recovery” value (Healthy volunteers; human, 0.14 mg/kg) was about 60 min and the ED95 dose (Healthy volunteers; human, under sevoflurane anesthesia) was 0.08 mg/kg. For the same compound, the “ED 95 for humans” value (Healthy volunteers; humans) was “about 0.077 mg/kg”, the “potential for bronchoconstrictive activity or histamine release” value [2] was “low potential” and the half-life ([3]; in vivo, intravenous, all dosage groups, read-out: half-life of elimination) was 25 to 26 min. It also gave an AUC(0-t) ([3]; plasma, iv, 0.04 mg/kg, single IV bolus 0.04 mg/kg (n = 6), read-out: AUClast, Geometric Mean (converted)) of 132 ng·h/mL, an AUC(0-t) ([3]; plasma, iv, 0.04 mg/kg, single IV bolus 0.04 mg/kg (n = 6), read-out: AUClast, Mean (converted)) of 6.35 ng·h/mL and a clearance ([3]; plasma, iv, 0.04 mg/kg, single IV bolus 0.04 mg/kg (n = 6), read-out: CL (clearance), Geometric Mean) of 387 mL/min. It also gave a clearance ([3]; plasma, iv, 0.04 mg/kg, single IV bolus 0.04 mg/kg (n = 6), read-out: CL (clearance), Mean (SD)) of 400 mL/min, a Cmax ([3]; plasma, iv, 0.04 mg/kg, single IV bolus 0.04 mg/kg (n = 6), read-out: Cmax, Geometric Mean) of 2360 ng/mL and a Cmax ([3]; plasma, iv, 0.04 mg/kg, single IV bolus 0.04 mg/kg (n = 6), read-out: Cmax, Mean) of 2540 ng/mL. For the same compound, the Vd ([3]; plasma, iv, 0.04 mg/kg, single IV bolus 0.04 mg/kg (n = 6), read-out: Vss (volume at steady state), Geometric Mean) was 9.33 L, the Vd ([3]; plasma, iv, 0.04 mg/kg, single IV bolus 0.04 mg/kg (n = 6), read-out: Vss (volume at steady state), Mean) was 9.54 L and the half-life ([3]; plasma, iv, 0.04 mg/kg, single IV bolus 0.04 mg/kg (n = 6), read-out: t1/2 (terminal elimination half-life), Geometric Mean) was 27.4 min. For the same compound, the half-life ([3]; plasma, iv, 0.04 mg/kg, single IV bolus 0.04 mg/kg (n = 6), read-out: t1/2 (terminal elimination half-life), Mean (SD)) was 29 min, the AUC(0-t) ([3]; plasma, iv, 0.06 mg/kg, single IV bolus 0.06 mg/kg (n = 6), read-out: AUClast, Geometric Mean (converted)) was 160 ng·h/mL and the AUC(0-t) ([3]; plasma, iv, 0.06 mg/kg, single IV bolus 0.06 mg/kg (n = 6), read-out: AUClast, Mean (converted)) was 153 ng·h/mL.
